Results on twelve compounds are retold here after PMC2923275 (Biochemical pharmacology, 2010).

For data set [1], the system named is uninfected human foreskin fibroblasts. The experiment in a line: Host toxicity, MTT assay on uninfected host cells. The conditions noted are these: infection: None. On the technique in general: Tetrazolium dyes change colour on reduction, which living cells bring about.
For data set [2], the system named is adenosine kinase deficient (TgAK^-3) strain of T. gondii. In words: Anti-toxoplasmic activity in tissue culture. Format: cell-based, Toxoplasma gondii. The conditions noted are these: TgAK^-3 in human fibroblasts.
Data set [3] deals with wild type (RH) strain of T. gondii. In words: Anti-toxoplasmic activity in tissue culture. Format: cell-based, Toxoplasma gondii. The note with it: wild type (RH) in human fibroblasts.

Take `OCC1CC(n2cnc3c(SCc4ccccc4F)ncnc32)C(O)C1O` (stereo not shown) [Compound 2, Carbocyclic 6-(o-fluorobenzylthio)inosine]: the “host-toxicity (survival of uninfected host cells)” value (from here on “host-toxicity”) in data set [1] (5 μM compound) is reported as 100%; in data set [1] (10 μM compound) it was 100%; in data set [1] (25 μM compound), 100%; in data set [1] (50 μM compound) it was 85.8%. The “percent survival of parasite” value came to 100% in data set [2] (5 μM compound); 100% in data set [2] (10 μM compound); 100% in data set [2] (25 μM compound); 100% in data set [2] (50 μM compound); 98.6% in data set [3] (5 μM compound); 93.7% in data set [3] (10 μM compound). Further, the “percent survival of parasite” value in data set [3] (25 μM compound) stood at 39.2%; in data set [3] (50 μM compound), 12.7%.

`OCC1CC(n2cnc3c(SCc4ccccc4Cl)ncnc32)C(O)C1O` (stereo not shown) [Compound 3, Carbocyclic 6-(o-chlorobenzylthio)inosine]: the “host-toxicity” value in data set [1] (5 μM compound), in data set [1] (10 μM compound), in data set [1] (25 μM compound) and in data set [1] (50 μM compound) was 100% throughout. The “percent survival of parasite” value in data set [2] (5 μM compound) was 100%; in data set [2] (10 μM compound), 100%; in data set [2] (25 μM compound), 100%; in data set [2] (50 μM compound), 100%; in data set [3] (5 μM compound), 79.5%; in data set [3] (10 μM compound) it was 48.8%. Also, the results for the “percent survival of parasite” value in data set [3] (25 μM compound) and in data set [3] (50 μM compound) were 9.8% and 2.2%, respectively.

Consider `Cc1ccccc1CSc1ncnc2c1ncn2C1CC(CO)C(O)C1O` (stereo not shown) [Compound 4, Carbocyclic 6-(o-methylbenzylthio)inosine], for which the “host-toxicity” value in data set [1] (5 μM compound) stood at 100%; in data set [1] (10 μM compound), 100%; in data set [1] (25 μM compound), 100%; in data set [1] (50 μM compound) it was 99.2%. Also, the “percent survival of parasite” value in data set [2] (5 μM compound) is 100%; in data set [2] (10 μM compound), 100%; in data set [2] (25 μM compound), 100%; in data set [2] (50 μM compound), 100%; in data set [3] (5 μM compound), 82.7%; in data set [3] (10 μM compound) it was 45.4%. Besides, the results for the “percent survival of parasite” value in data set [3] (25 μM compound) and in data set [3] (50 μM compound) were 7.6% and 0.0%, respectively.

With `Cc1cccc(CSc2ncnc3c2ncn3C2CC(CO)C(O)C2O)c1` (stereo not shown) [Compound 5, Carbocyclic 6-(m-methylbenzylthio)inosine], the “host-toxicity” value in data set [1] (5 μM compound) worked out at 100%; in data set [1] (10 μM compound) it was 100%; in data set [1] (25 μM compound), 100%; in data set [1] (50 μM compound), 96.1%. Also, the “percent survival of parasite” value in data set [2] (5 μM compound) amounted to 100%; in data set [2] (10 μM compound), 100%; in data set [2] (25 μM compound), 100%; in data set [2] (50 μM compound), 100%; in data set [3] (5 μM compound), 88.3%; in data set [3] (10 μM compound), 64.7%. In addition, the figures for the “percent survival of parasite” value in data set [3] (25 μM compound) and in data set [3] (50 μM compound) were 13.7% and 1.2%, respectively.

Turning to `OCC1CC(n2cnc3c(SCc4cccc(C(F)(F)F)c4)ncnc32)C(O)C1O` (stereo not shown) [Compound 6, Carbocyclic 6-(m-trifluoromethylbenzylthio)inosine], the “host-toxicity” value is given as 100% in data set [1] (5 μM compound), 100% in data set [1] (10 μM compound), 100% in data set [1] (25 μM compound) and 90.6% in data set [1] (50 μM compound). Besides, the “percent survival of parasite” value in data set [2] (5 μM compound) was 100%; in data set [2] (10 μM compound), 100%; in data set [2] (25 μM compound), 100%; in data set [2] (50 μM compound), 100%; in data set [3] (5 μM compound), 79.0%; in data set [3] (10 μM compound) it was 47.1%. Also, the “percent survival of parasite” value in data set [3] (25 μM compound) is given as 6.3%; in data set [3] (50 μM compound) it was 1.0%.

Take `O=[N+]([O-])c1cccc(CSc2ncnc3c2ncn3C2CC(CO)C(O)C2O)c1` (stereo not shown) [Compound 7, Carbocyclic 6-(m-nitrobenzylthio)inosine]: the “host-toxicity” value in data set [1] (5 μM compound), in data set [1] (10 μM compound), in data set [1] (25 μM compound) and in data set [1] (50 μM compound) was 100% throughout. The “percent survival of parasite” value in data set [2] (5 μM compound) is reported as 100%; in data set [2] (10 μM compound), 100%; in data set [2] (25 μM compound), 100%; in data set [2] (50 μM compound), 100%; in data set [3] (5 μM compound), 84.4%; in data set [3] (10 μM compound), 50.9%. Also, the “percent survival of parasite” value in data set [3] (25 μM compound) came to 4.2%; in data set [3] (50 μM compound), 0.0%.

For `OCC1CC(n2cnc3c(SCc4ccc(Cl)cc4)ncnc32)C(O)C1O` (stereo not shown) [Compound 9, Carbocyclic 6-(p-chlorobenzylthio)inosine], the “host-toxicity” value in data set [1] (5 μM compound), in data set [1] (10 μM compound), in data set [1] (25 μM compound) and in data set [1] (50 μM compound) was 100% in each case. The “percent survival of parasite” value in data set [2] (5 μM compound) came out at 100%; in data set [2] (10 μM compound) it was 100%; in data set [2] (25 μM compound) it was 100%; in data set [2] (50 μM compound), 100%; in data set [3] (5 μM compound), 72.9%; in data set [3] (10 μM compound) it was 11.9%. Moreover, the “percent survival of parasite” value in data set [3] (25 μM compound) and in data set [3] (50 μM compound) was 0.0% throughout.

Regarding `OCC1CC(n2cnc3c(SCc4ccc(Br)cc4)ncnc32)C(O)C1O` (stereo not shown) [Compound 10, Carbocyclic 6-(p-bromobenzylthio)inosine], the “host-toxicity” value in data set [1] (5 μM compound), in data set [1] (10 μM compound), in data set [1] (25 μM compound) and in data set [1] (50 μM compound) was 100% each time. In addition, the “percent survival of parasite” value in data set [2] (5 μM compound) was 100%; in data set [2] (10 μM compound) it was 100%; in data set [2] (25 μM compound), 100%; in data set [2] (50 μM compound), 100%; in data set [3] (5 μM compound), 77.1%; in data set [3] (10 μM compound) it was 47.3%. In addition, the “percent survival of parasite” value in data set [3] (25 μM compound) worked out at 1.2%; in data set [3] (50 μM compound), 1.0%.

In the case of `O=[N+]([O-])c1ccc(CSc2ncnc3c2ncn3C2CC(CO)C(O)C2O)cc1` (stereo not shown) [Compound 12, Carbocyclic 6-(p-nitrobenzylthio)inosine], the “host-toxicity” value in data set [1] (5 μM compound), in data set [1] (10 μM compound), in data set [1] (25 μM compound) and in data set [1] (50 μM compound) was 100% in each case. Also, the “percent survival of parasite” value in data set [2] (5 μM compound) worked out at 100%; in data set [2] (10 μM compound), 100%; in data set [2] (25 μM compound), 100%; in data set [2] (50 μM compound), 100%; in data set [3] (5 μM compound), 100%; in data set [3] (10 μM compound), 97.6%. In addition, the “percent survival of parasite” value in data set [3] (25 μM compound) is recorded as 44.2%; in data set [3] (50 μM compound), 16.8%.

With `N#Cc1ccc(CSc2ncnc3c2ncn3C2CC(CO)C(O)C2O)cc1` (stereo not shown) [Compound 13, Carbocyclic 6-(p-cyanobenzylthio)inosine], the “host-toxicity” value in data set [1] (5 μM compound), in data set [1] (10 μM compound), in data set [1] (25 μM compound) and in data set [1] (50 μM compound) was 100% in each case. Also, the “percent survival of parasite” value in data set [2] (5 μM compound), in data set [2] (10 μM compound), in data set [2] (25 μM compound), in data set [2] (50 μM compound), in data set [3] (5 μM compound) and in data set [3] (10 μM compound) was 100% throughout. The entries for the “percent survival of parasite” value in data set [3] (25 μM compound) and in data set [3] (50 μM compound) were 48.8% and 17.8%, respectively.

Regarding `Nc1ccc(S(=O)(=O)Nc2ncccn2)cc1` [Compound 23, Sulfadiazine, reference compound], the “host-toxicity” value worked out at 98.2% in data set [1] (5 μM compound), 99.8% in data set [1] (10 μM compound), 99.8% in data set [1] (25 μM compound) and 102% in data set [1] (50 μM compound). The “percent survival of parasite” value in data set [3] (5 μM compound) amounted to 92.9%; in data set [3] (10 μM compound), 58.0%; in data set [3] (25 μM compound), 53.4%; in data set [3] (50 μM compound) it was 46.3%.

Regarding `CCc1nc(N)nc(N)c1-c1ccc(Cl)cc1` [Compound 24, Pyrimethamine, reference compound], the “host-toxicity” value in data set [1] (5 μM compound) is recorded as 101%; in data set [1] (10 μM compound), 100%; in data set [1] (25 μM compound), 108%; in data set [1] (50 μM compound), 108%. In addition, the “percent survival of parasite” value in data set [3] (5 μM compound) was 98.9%; in data set [3] (10 μM compound), 55.3%; in data set [3] (25 μM compound), 25.1%; in data set [3] (50 μM compound) it was 23.2%.
